This is an account of results in US10034886B2, “GLP-1 receptor modulators” (Celgene International II SÀRL, priority 2014, dated 2018).

T1 sequence (P43220 24-463): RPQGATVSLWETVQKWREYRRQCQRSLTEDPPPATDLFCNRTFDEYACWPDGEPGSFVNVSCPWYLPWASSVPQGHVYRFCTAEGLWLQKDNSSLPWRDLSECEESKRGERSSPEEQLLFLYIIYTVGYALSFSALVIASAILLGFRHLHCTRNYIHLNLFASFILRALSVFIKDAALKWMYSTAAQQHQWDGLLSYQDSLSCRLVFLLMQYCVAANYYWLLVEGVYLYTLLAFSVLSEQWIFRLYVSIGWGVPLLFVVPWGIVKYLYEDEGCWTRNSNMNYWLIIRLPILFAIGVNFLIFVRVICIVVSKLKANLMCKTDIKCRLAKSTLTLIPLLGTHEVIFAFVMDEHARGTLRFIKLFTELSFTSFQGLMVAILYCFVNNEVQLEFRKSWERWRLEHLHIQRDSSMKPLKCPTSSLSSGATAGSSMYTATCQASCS
T1 sequence (P01275 100-127 partner limits assumed): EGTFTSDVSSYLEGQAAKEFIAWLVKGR

The test addresses T1, GLP-1R (Homo sapiens, UniProt P43220).
T1 construct: host or cells: GLP-1R CRE-bla CHO-K1 cells
The experiment in a line: EC20 GLP-1(9-36) PAM cAMP assay: dose response of compound in the presence of fixed concentration of GLP-1(9-36). The format is cell-based. The note with it: dose response of compound in presence of fixed concentration of GLP-1(9-36), GLP-1R CRE-bla CHO-K1 cells, read-out: EC20 GLP-1(9-36) PAM EC50. On the procedure:
EC20 GLP-1(9-36) PAM cAMP Assay: Dose Response of Compound in the Presence of Fixed Concentration of GLP-1 (9-36).
GLP-1R CRE-bla CHO-K1 cells cultured in growth medium (DMEM-High glucose, 10% dialyzed FBS, 0.1 mM NEAA, 25 mM Hepes, 100 U/mL penicillin/100 μg/mL streptomycin, 5 μg/mL Blasticidin, 600 μg/mL Hygromycin) were trypsinized and plated in suspension into 384 well white flat bottom plates at 5000 cells/well in 12 μL assay buffer (Hanks Balanced Salt solution, 10 mM hepes, 0.1% BSA, pH 7.4). A 5× compound dose response curve (12-point) was generated in assay buffer containing 1.5 mM IBMX, 4% DMSO. GLP-1(9-36) was diluted to 4.2 μM in assay buffer containing 1.5 mM IMBX and 4% DMSO. The 5× compound dose response was added (3 μL), followed by 0.5 μL of GLP-1(9-36) and cells were incubated for 30 min at 37° C. Direct detection of cAMP was carried out using DiscoveRx HitHunter cAMP kit according to manufacturer's instructions and luminescence was read using a SpectraMax M5 plate reader. Luminescence was converted to total cAMP using a cAMP standard curve and data was analyzed by non-linear regression to determine the EC50 and Emax.
GLP-1(7-36): […]-NH2 (SEQ ID NO: 2). GLP-1(9-36): […]-NH2 (SEQ ID NO: 3). GLP-1(7-36) was purchased from GenScript. GLP-1(9-36) was purchased from Biopeptide Co., Inc.
The EC20GLP-1(9-36) PAM Activity range is denoted as follows: + denotes activity <0.8 μM, ++ denotes activity between 0.8 and 2.5 μM, +++ denotes activity between 2.5 and 5 μM, and ++++ denotes activity 5 to 10 μM.
(Changes in cAMP serve as a functional read-out for many G protein-coupled receptors.)
As for `CCCCCCCOc1ccc(-c2cnc(-c3ccc(C[C@H](NC(=O)c4ccc(C(C)(C)C)s4)C(=O)N[C@@H](CCN)C(=O)O)cc3)nc2)cc1` [Compound 410, (S)-4-amino-2-((S)-2-(5-(tert-butyl)thiophene-2-carboxamido)-3-(4-(5-(4-(heptyloxy)phenyl)pyrimidin-2-yl)phenyl)propanamido)butanoic acid], the concentration for a half-maximal effect (EC50) (usually the concentration at which the effect is half-maximal) fell in the range of 800 to 2500 nM.
For the compound `CCCCCCCOc1ccc(-c2cnc(-c3ccc(C[C@H](NC(=O)c4ccc(C(C)(C)C)s4)C(=O)N[C@H](CCN)C(=O)O)cc3)nc2)cc1` [Compound 411], the 50% effective concentration (EC50) was in the range of 800 to 2500 nM.
With `CCCCCCCOc1ccc(-c2cnc(-c3ccc(C[C@H](NC(=O)c4ccc(C(C)(C)C)s4)C(=O)NC(C(=O)O)c4ccco4)cc3)nc2)cc1` (some centres unmarked) [Compound 412], the EC50 was below 800 nM.
As for `CCCCCCCOc1ccc(-c2cnc(-c3ccc(CC(NC(=O)c4ccc(C(C)(C)C)s4)C(=O)N[C@H](C(=O)O)[C@@H](C)CC)cc3)nc2)cc1` (some centres unmarked) [Compound 414], the EC50 is below 800 nM.
For the compound `CCCCCCCOc1ccc(-c2cnc(-c3ccc(CC(NC(=O)c4ccc(C(C)(C)C)s4)C(=O)N[C@@H](Cc4ccccc4)C(=O)O)cc3)nc2)cc1` (some centres unmarked) [Compound 415], the EC50 is below 800 nM.
`CCCCCCCOc1ccc(-c2cnc(-c3ccc(CC(NC(=O)c4ccc(C(C)(C)C)s4)C(=O)N[C@@H](CCSC)C(=O)O)cc3)nc2)cc1` (some centres unmarked) [Compound 416]: the concentration giving a half-maximal response (EC50) was below 800 nM.
On to `CCCCCCCOc1ccc(-c2cnc(-c3ccc(C[C@H](NC(=O)c4ccc(C(C)(C)C)cc4)C(=O)N[C@H](CO)C(=O)O)cc3)nc2)cc1` [Compound 417], for which the EC50 was below 800 nM.
Turning to `CCCCCCCOc1ccc(-c2cnc(-c3ccc(C[C@H](NC(=O)c4ccc(C(C)(C)C)cc4)C(=O)N[C@@H](CO)C(=O)O)cc3)nc2)cc1` [Compound 418], the half-maximal effective concentration (EC50) is below 800 nM.
Consider `CCCCCCCOc1ccc(-c2cnc(-c3ccc(C[C@H](NC(=O)c4ccc(C(C)(C)C)s4)C(=O)NS(C)(=O)=O)cc3)nc2)cc1` [Compound 419], for which the EC50 is below 800 nM.
Take `CCCCCCCOc1ccc(-c2cnc(-c3ccc(C[C@H](NC(=O)c4ccc(C(C)(C)C)s4)C(=O)NS(=O)(=O)CC)cc3)nc2)cc1` [Compound 420]: the EC50 was below 800 nM.
In the case of `CCCCCCCOc1ccc(-c2cnc(-c3ccc(C[C@H](NC(=O)c4ccc(C(C)(C)C)s4)C(=O)NS(N)(=O)=O)cc3)nc2)cc1` [Compound 421] it was 800 to 2500 nM; in that of `CCCCCCCOc1ccc(-c2cnc(-c3ccc(C[C@H](NC(=O)c4ccc(C(C)(C)C)s4)C(=O)NS(=O)(=O)CC(=O)OC)cc3)nc2)cc1` [Compound 422, methyl (S)-2-(N-(2-(5-(tert-butyl)thiophene-2-carboxamido)-3-(4-(5-(4-(heptyloxy)phenyl)pyrimidin-2-yl)phenyl)propanoyl)sulfamoyl)acetate], below 800 nM; in that of `CCCCCCCOc1ccc(-c2cnc(-c3ccc(C[C@H](NC(=O)c4ccc(C(C)(C)C)s4)C(=O)NS(=O)(=O)c4ccccc4)cc3)nc2)cc1` [Compound 423], 800 to 2500 nM.
The value for `CCCCCCCOc1ccc(-c2cnc(-c3ccc(CC(NC(=O)c4ccc(C(C)(C)C)s4)C(=O)N[C@H](C(=O)O)[C@@H](C)O)cc3)nc2)cc1` (some centres unmarked) [Compound 424] was below 800 nM; that for `CCCCCCCOc1ccc(-c2cnc(-c3ccc(CC(NC(=O)c4ccc(C(C)(C)C)s4)C(=O)N[C@@H](CCCNC(=N)N)C(=O)O)cc3)nc2)cc1` (some centres unmarked) [Compound 425] was 2500 to 5000 nM; that for `CCCCCCCOc1ccc(-c2cnc(-c3ccc(CC(NC(=O)c4ccc(C(C)(C)C)s4)C(=O)N[C@@H](CSSC[C@H](N)C(=O)O)C(=O)O)cc3)nc2)cc1` (some centres unmarked) [Compound 426] was 800 to 2500 nM.
The value for `CCCCCCCOc1ccc(-c2cnc(-c3ccc(CC(NC(=O)c4ccc(C(C)(C)C)s4)C(=O)N[C@@H](CCCCN)C(=O)O)cc3)nc2)cc1` (some centres unmarked) [Compound 427] was 800 to 2500 nM.
With `CCCCCCCOc1ccc(-c2cnc(-c3ccc(CC(NC(=O)c4ccc(C(C)(C)C)s4)C(=O)N[C@@H](Cc4ccc(O)cc4)C(=O)O)cc3)nc2)cc1` (some centres unmarked) [Compound 428], the EC50 lay within 800 to 2500 nM.
Consider `CCCCCCCOc1ccc(-c2cnc(-c3ccc(CC(NC(=O)c4ccc(C(C)(C)C)s4)C(=O)NCCCC(=O)O)cc3)nc2)cc1` (centres unmarked) [Compound 429], for which the EC50 was in the range of 2500 to 5000 nM.
Turning to `CCCCCCCOc1ccc(-c2cnc(-c3ccc(CC(NC(=O)c4ccc(C(C)(C)C)s4)C(=O)NCC4CCN(C)CC4)cc3)nc2)cc1` (centres unmarked) [Compound 430], the EC50 is 5000 to 10000 nM.
For the compound `CCCCCCCOc1ccc(-c2cnc(-c3ccc(CC(NC(=O)c4ccc(C(C)(C)C)s4)C(=O)N4CC(C(=O)O)C4)cc3)nc2)cc1` (centres unmarked) [Compound 431], the concentration giving a half-maximal response (EC50) is below 800 nM.
Take `CCCCCCCOc1ccc(-c2cnc(-c3ccc(CC(NC(=O)c4ccc(C(C)(C)C)s4)C(=O)N[C@@H](Cc4c[nH]c5ccccc45)C(=O)O)cc3)nc2)cc1` (some centres unmarked) [Compound 432]: the EC50 was below 800 nM.
For `CCCCCCCOc1ccc(-c2cnc(-c3ccc(C[C@@H](NC(=O)c4ccc(C(C)(C)C)cc4)C(=O)NCCC(=O)O)cc3)nc2)cc1` [Compound 433], the EC50 lay in the range of 2500 to 5000 nM.
`CCCCCCCOc1ccc(-c2cnc(-c3ccc(C[C@H](NC(=O)c4ccc(C(C)(C)C)s4)C(=O)NS(=O)(=O)CC(=O)O)cc3)nc2)cc1` [Compound 434]: the EC50 is 800 to 2500 nM.
Regarding `CCCCCCCOc1ccc(-c2cnc(-c3ccc(C[C@H](NC(=O)c4ccc(C(C)(C)C)s4)C(=O)NS(=O)(=O)CCOC)cc3)nc2)cc1` [Compound 435], the EC50 was 800 to 2500 nM.
`CCCCCCCOc1ccc(-c2cnc(-c3ccc(C[C@@H](NC(=O)c4ccc(C(C)(C)C)cc4)C(=O)N[C@@H](C)C(=O)O)cc3)nc2)cc1` [Compound 436]: the concentration giving a half-maximal response (EC50) is below 800 nM.
For `CCCCCCCOc1ccc(-c2cnc(-c3ccc(C[C@@H](NC(=O)c4ccc(C(C)(C)C)cc4)C(=O)N[C@H](C)C(=O)O)cc3)nc2)cc1` [Compound 437], the half-maximal effective concentration (EC50) was below 800 nM.
`CCCCCCCOc1ccc(-c2cnc(-c3ccc(C[C@H](NC(=O)c4ccc(C(C)(C)C)s4)C(=O)NC[C@H]4CCNC4)cc3)nc2)cc1` [Compound 438]: the EC50 was in the range of 5000 to 10000 nM.
With `CCCCCCCOc1ccc(-c2cnc(-c3ccc(C[C@H](NC(=O)c4ccc(C(C)(C)C)s4)C(=O)NC[C@@H]4CCNC4)cc3)nc2)cc1` [Compound 439], the concentration for a half-maximal effect (EC50) is 2500 to 5000 nM.
Regarding `CCCCCCCOc1ccc(-c2cnc(-c3ccc(C[C@H](NC(=O)c4ccc(C(C)(C)C)cc4)C(=O)NC(C(=O)O)c4ccco4)cc3)nc2)cc1` (some centres unmarked) [Compound 440], the 50% effective concentration (EC50) was below 800 nM.
For the compound `CCCCCCCOc1ccc(-c2cnc(-c3ccc(CC(NC(=O)c4ccc(C(C)(C)C)s4)C(=O)Nc4cccc(C(=O)O)c4)cc3)nc2)cc1` (centres unmarked) [Compound 441], the EC50 was 800 to 2500 nM.
For `CCCCCCCOc1ccc(-c2cnc(-c3ccc(CC(NC(=O)c4ccc(C(C)(C)C)s4)C(=O)Nc4ccc(C(=O)O)cc4)cc3)nc2)cc1` (centres unmarked) [Compound 442], the EC50 lay within 800 to 2500 nM.
`CCOCCCCOc1ccc(-c2cnc(-c3ccc(C[C@H](NC(=O)c4ccc(C(C)(C)C)cc4)C(=O)NCCC(=O)O)cc3)nc2)cc1` [Compound 443]: the EC50 lay within 800 to 2500 nM.
For the compound `CCCCCCCOc1ccc(-c2cnc(-c3ccc(C[C@H](NC(=O)c4ccc(C(C)(C)C)cc4)C(=O)NCC(=O)NCC(=O)O)cc3)nc2)cc1` [Compound 444], the EC50 was below 800 nM.
With `CCCCCCCOc1ccc(-c2cnc(-c3ccc(C[C@H](NC(=O)c4ccc(C(C)(C)C)cc4)C(=O)NCC(=O)NCCC(=O)O)cc3)nc2)cc1` [Compound 445], the EC50 is below 800 nM.
